# Laboratory results from PubChem BioAssay (NCI).
# “And” between values parts separate entries of the source, which are not always exact repeats. Equal entries are not always repeated.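 Test compounds were applied to cells in 96-well plates for 48 hours at 5 doses. GI50 marks 50% less growth. TGI: concentration producing complete growth inhibition.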
# Columns and labels:
# Experiment in all cases: NCI tumour cell line growth inhibition, 48 h
# RXF 393 renal = test system: RXF 393 renal
# SK-MEL-5 melanoma = test system: SK-MEL-5 melanoma
# MCF7 breast = test system: MCF7 breast
# MDA-N = test system: MDA-N
# NCI-H522 lung = test system: NCI-H522 lung
# SK-MEL-28 melanoma = test system: SK-MEL-28 melanoma
# HOP-62 NSCLC = test system: HOP-62 NSCLC
# T-47D breast = test system: T-47D breast
# XF 498 CNS = test system: XF 498 CNS
# SN12C renal = test system: SN12C renal
# MDA-MB-231 breast = test system: MDA-MB-231 breast
# NCI-H226 lung = test system: NCI-H226 lung
# BT-549 breast = test system: BT-549 breast
# K-562 leukemia = test system: K-562 leukemia
# NCI-H23 lung = test system: NCI-H23 lung
# SF-539 CNS = test system: SF-539 CNS
# HOP-92 NSCLC = test system: HOP-92 NSCLC
# HCT-15 colon = test system: HCT-15 colon
# MOLT-4 leukemia = test system: MOLT-4 leukemia
# TK-10 renal = test system: TK-10 renal
# HCC-2998 colon = test system: HCC-2998 colon
# DU-145 prostate = test system: DU-145 prostate
# A498 renal = test system: A498 renal
# KM12 colon = test system: KM12 colon
# KM20L2 colon = test system: KM20L2 colon
# NCI/ADR-RES ovarian = test system: NCI/ADR-RES ovarian
# HT29 colon = test system: HT29 colon
# SNB-19 CNS = test system: SNB-19 CNS
# P388/ADR leukemia = test system: P388/ADR leukemia
# CAKI-1 renal = test system: CAKI-1 renal
# CCRF-CEM leukemia = test system: CCRF-CEM leukemia
# MDA-MB-435 = test system: MDA-MB-435
# RPMI-8226 leukemia = test system: RPMI-8226 leukemia
# DMS 114 small cell lung = test system: DMS 114 small cell lung
# HS 578T breast = test system: HS 578T breast
# OVCAR-3 ovarian = test system: OVCAR-3 ovarian
# DMS 273 small cell lung = test system: DMS 273 small cell lung
# SR leukemia = test system: SR leukemia
# IGROV1 ovarian = test system: IGROV1 ovarian
# SW-620 colon = test system: SW-620 colon
# PC-3 prostate = test system: PC-3 prostate
# A549 NSCLC = test system: A549 NSCLC
# DLD-1 colon = test system: DLD-1 colon
# UACC-62 melanoma = test system: UACC-62 melanoma
# U251 CNS = test system: U251 CNS
# SF-295 CNS = test system: SF-295 CNS
# NCI-H460 lung = test system: NCI-H460 lung
# SNB-75 CNS = test system: SNB-75 CNS
# MALME-3M melanoma = test system: MALME-3M melanoma
# OVCAR-8 ovarian = test system: OVCAR-8 ovarian
# COLO 205 colon = test system: COLO 205 colon
# P388 leukemia = test system: P388 leukemia
smiles,measurement,setting,value
O=CC(NC(=O)N(CCCl)N=O)C(O)C(O)C(O)CO (configuration not stated),GI50,RXF 393 renal,417 µM
same,TGI,RXF 393 renal,625 µM and > 1250 µM
same,GI50,SK-MEL-5 melanoma,161 µM
same,TGI,SK-MEL-5 melanoma,625 µM and 647 µM
same,GI50,MCF7 breast,485 µM
same,TGI,MCF7 breast,625 µM and > 1250 µM
same,TGI,MDA-N,> 1220 µM
same,GI50,NCI-H522 lung,> 625 µM
same,TGI,NCI-H522 lung,> 1250 µM
same,GI50,SK-MEL-28 melanoma,> 1250 µM
same,TGI,SK-MEL-28 melanoma,> 1250 µM
same,GI50,HOP-62 NSCLC,115 µM
same,TGI,HOP-62 NSCLC,536 µM and 422 µM
same,TGI,T-47D breast,> 1250 µM
same,TGI,XF 498 CNS,415 µM and > 1250 µM
same,GI50,SN12C renal,206 µM and > 1250 µM
same,TGI,SN12C renal,625 µM and > 1250 µM
same,TGI,MDA-MB-231 breast,> 1250 µM
same,GI50,NCI-H226 lung,73.1 µM
same,TGI,NCI-H226 lung,625 µM and > 1250 µM
same,TGI,BT-549 breast,> 1250 µM
same,GI50,K-562 leukemia,> 198 µM and 1040 µM
same,TGI,K-562 leukemia,> 1250 µM
same,GI50,NCI-H23 lung,233 µM and > 1250 µM
same,TGI,NCI-H23 lung,625 µM and > 1250 µM
same,GI50,SF-539 CNS,40 µM and 255 µM
same,TGI,SF-539 CNS,483 µM and > 1250 µM and 614 µM
same,GI50,HOP-92 NSCLC,377 µM and > 1250 µM and 362 µM
same,TGI,HOP-92 NSCLC,625 µM and > 1250 µM and > 1230 µM
same,GI50,HCT-15 colon,> 625 µM
same,TGI,HCT-15 colon,> 1250 µM
same,GI50,MOLT-4 leukemia,104 µM
same,TGI,MOLT-4 leukemia,625 µM and > 1060 µM
same,TGI,TK-10 renal,> 1250 µM
same,GI50,HCC-2998 colon,> 625 µM
same,TGI,HCC-2998 colon,> 1250 µM
same,TGI,DU-145 prostate,> 1250 µM
same,GI50,A498 renal,> 1250 µM
same,TGI,A498 renal,> 1250 µM
same,GI50,KM12 colon,541 µM
same,TGI,KM12 colon,625 µM and > 1250 µM
same,GI50,KM20L2 colon,> 625 µM
same,TGI,KM20L2 colon,> 1250 µM
same,GI50,NCI/ADR-RES ovarian,499 µM and > 1250 µM
same,TGI,NCI/ADR-RES ovarian,625 µM and > 1250 µM
same,GI50,HT29 colon,> 625 µM
same,TGI,HT29 colon,> 1250 µM
same,GI50,SNB-19 CNS,62.6 µM and 384 µM
same,TGI,SNB-19 CNS,625 µM and > 1250 µM
same,GI50,P388/ADR leukemia,34.5 µM and 65 µM
same,TGI,P388/ADR leukemia,360 µM and > 1250 µM
same,GI50,CAKI-1 renal,269 µM
same,TGI,CAKI-1 renal,625 µM and > 1250 µM
same,GI50,CCRF-CEM leukemia,207 µM and 515 µM
same,TGI,CCRF-CEM leukemia,625 µM and > 1250 µM
same,TGI,MDA-MB-435,> 1250 µM
same,GI50,RPMI-8226 leukemia,497 µM and > 1250 µM
same,TGI,RPMI-8226 leukemia,625 µM and > 1250 µM
same,GI50,DMS 114 small cell lung,218 µM and > 1250 µM
same,TGI,DMS 114 small cell lung,625 µM and > 1250 µM
same,TGI,HS 578T breast,> 1250 µM
same,GI50,OVCAR-3 ovarian,> 625 µM
same,TGI,OVCAR-3 ovarian,> 1250 µM
same,GI50,DMS 273 small cell lung,218 µM and > 1250 µM
same,TGI,DMS 273 small cell lung,625 µM and > 1250 µM and > 1210 µM
same,TGI,SR leukemia,> 623 µM
same,GI50,IGROV1 ovarian,460 µM and > 1250 µM
same,TGI,IGROV1 ovarian,625 µM and > 1250 µM
same,GI50,SW-620 colon,171 µM and > 1250 µM
same,TGI,SW-620 colon,625 µM and > 1250 µM
same,TGI,PC-3 prostate,> 1250 µM
same,GI50,A549 NSCLC,162 µM and 584 µM
same,TGI,A549 NSCLC,625 µM and > 1250 µM
same,GI50,DLD-1 colon,> 625 µM
same,TGI,DLD-1 colon,> 1250 µM
same,GI50,UACC-62 melanoma,18.5 µM
same,TGI,UACC-62 melanoma,185 µM and > 1250 µM and 939 µM
same,GI50,U251 CNS,69.2 µM and 105 µM
same,TGI,U251 CNS,625 µM and > 1250 µM
same,GI50,SF-295 CNS,31.5 µM
same,TGI,SF-295 CNS,625 µM and 764 µM
same,GI50,NCI-H460 lung,208 µM and 401 µM
same,TGI,NCI-H460 lung,625 µM and > 1250 µM and > 1210 µM
same,GI50,SNB-75 CNS,146 µM
same,TGI,SNB-75 CNS,625 µM and 1050 µM
same,GI50,MALME-3M melanoma,131 µM
same,TGI,MALME-3M melanoma,543 µM and 767 µM
same,GI50,OVCAR-8 ovarian,> 625 µM and 587 µM
same,TGI,OVCAR-8 ovarian,> 1250 µM
same,GI50,COLO 205 colon,> 625 µM
same,TGI,COLO 205 colon,> 1250 µM
same,TGI,P388 leukemia,> 1250 µM
